The test system of one data set is Streptococcus: group G. In words: Agar well diffusion. Particulars: 40 ul of 1 mg/ml in DMSO. On the technique in general: A growth-free zone around the sample is the usual read-out of agar diffusion tests.
Data set [1] deals with α-haemolytic Streptococci. In words: Agar well diffusion. The note with it: 40 ul of 1 mg/ml in DMSO.
A further data set concerns Streptococcus: group C. In words: Agar well diffusion. Particulars: 40 ul of 1 mg/ml in DMSO.
The test system of another data set is GAS. In words: MIC by broth dilution. The data set is classed as cell-based, group A Streptococci. Particulars: growth media without DMSO, solubility problems; true MIC might be lower. On the procedure: (§1) The in vitro antibacterial activity of drugs is commonly estimated by testing their minimal inhibitory (MIC) and bactericidal (MBC) concentrations.
(§2) MIC/MBC determinations were performed by broth dilution according to established procedures, well known for a person skilled in the art.
Background: In broth dilution the organism is exposed to a series of concentrations in liquid medium.

The subject of another data set is poliovirus type 1. It is filed as cell-based. Particulars: GMK AH 1 cells, 1 PFU/cell, 48 hours; Cp1 0.4 mM in 1% DMSO.
The test system of a further data set is S. aureus. In words: MIC by broth dilution. The data set is classed as cell-based. The note with it: growth media without DMSO, solubility problems; true MIC might be lower. On the procedure:
as §1, §2

In a further data set the test system is HSV-1 F. In words: Virus inhibition analysis and plaque counting test in GMK AH 1 cells. Particulars: 10 PFU/cell, 48 hours, Cp1 0.4 mM in 1% DMSO, Acyclovir 1.0 mM. It is filed as cell-based, Herpes Simplex Virus.
For a further data set, the system named is lethal strept challenge. In words: Protection against lethal strept challenge. It is filed as in vivo. Particulars: mouse.
Another data set concerns S. pneumoniae. In words: Agar well diffusion. The note with it: 40 ul of 1 mg/ml in DMSO.
The next data set deals with L. monocytogenes. Put plainly: Agar well diffusion. Particulars: 40 ul of 1 mg/ml in DMSO.
The test system of data set [2] is Staphylococci incl. multi-resistant MRSA. Put plainly: Agar well diffusion. Particulars: for antibacterial effect, Staphylococci incl. multi-resistant MRSA: agar well diffusion, 40 ul of 1 mg/ml in DMSO; for growth inhibition of approximately 100 strain of MRSA: clinical isolates, several with additional antibiotic resistance markers.
The next data set deals with cysteine proteases. Put plainly: Protease inhibitory activity. The data set is classed as biochemical.
Another data set concerns labial herpes. In words: Topical application to beginning labial herpes outbreak. Particulars: Cp1 in softening cream, 0.2 ml solution (0.1 g/l) on the lip of a person; performed twice. It is filed as in vivo.
A further data set has as its system Streptococcus: group A. Put plainly: Agar well diffusion. Particulars: 40 ul of 1 mg/ml in DMSO.
The subject of data set [3] is E. coli and other Gram-negatives. In words: Agar well diffusion. The note with it: for antibacterial effect, E. coli and other Gram-negatives: agar well diffusion, 40 ul of 1 mg/ml in DMSO.
For another data set, the system named is Streptococcus: group B. In words: Agar well diffusion. The note with it: 40 ul of 1 mg/ml in DMSO.
Data set [4] has as its system CNS incl. resistant and multiresistant MRSE. In words: Agar well diffusion. Particulars: 40 ul of 1 mg/ml in DMSO.
For data set [5], the system named is Aspergillus niger ATCC 16404. Put plainly: Antifungal MIC in Sabouraud broth. The data set is classed as cell-based. The note with it: 25° C., 7 days. On the procedure: (§3) The minimal inhibitory concentration (MIC) was determined using a method with Sabouraud broth (Becton Dickinson) and an initial inoculum 10^3-10^4 cfu/ml. Polypropylene 96-well plates (Nunc) were incubated at 25° C. for 48 h (for Candida albicans ATCC 10231) or 7 days (for Aspergillus niger ATCC 16404). The MIC was taken as the lowest drug concentration at which noticeable growth was inhibited. The experiments were performed in duplicate.

The test system of data set [6] is Candida albicans ATCC 10231. In words: Antifungal MIC in Sabouraud broth. It is filed as cell-based. The note with it: 25° C., 48 h. As to the method:
as §3

The next data set in a line: Solubility. It is filed as physicochemical.
The test system of another data set is bacteria. Put plainly: Anti-bacterial activity (tables of particularly interesting compounds). The data set is classed as cell-based. Details: key: + indicates that the compound show effects.

Values after ≈ are worked out from the molar mass of the structure shown. Non-standard residues stand in square brackets, D forms with d. dPhg = N[C@@H](C(=O)O)c1ccccc1; Phg = N[C@H](C(=O)O)c1ccccc1; code Z = not defined here; Orn = NCCC[C@H](N)C(=O)O; Mpa = O=C(O)CCS

Consider `CC(C)CC(NC(=O)C(CCCN=C(N)N)NC(=O)OCc1ccccc1)C(=O)N[C@H](CNC(=O)/C=C/c1ccccc1)C(C)C` (stereo in doubt) [Cp1, (2S)-2-[(N^α-Benzyloxycarbonyl-arginyl-leucyl)-amino]-1-trans-cinnamoylamino-3-methylbutane], for which the “antibacterial effect, Streptococcus: group G” value with Streptococcus: group G was “+”. The “antibacterial effect, α-haemolytic Streptococci” value in data set [1] is “−”. The “antibacterial effect, Streptococcus: group C” value in the data set on Streptococcus: group C is “+”. The “MIC for GAS” value against GAS is on record as “approximately 16 mg/L”. Moreover, the Polio plaques with poliovirus type 1 is recorded as 2.6 × 10^5. For the same molecule, the “MIC for S. aureus” value with S. aureus was “approximately 16 mg/L”. Besides, the HSV-1 plaques in the data set on HSV-1 F is listed as 1.0 × 10^3. In addition, the “protective capacity for lethal strept challenge” value with lethal strept challenge is listed as “strong protective capacity”. Moreover, the “antibacterial effect, S. pneumoniae” value with S. pneumoniae was “+”. In addition, in the data set with L. monocytogenes, the “antibacterial effect, L. monocytogenes” value is recorded as “+”. Also, in data set [2], the “antibacterial effect, Staphylococci incl. multi-resistant MRSA” value is listed as “+” and the “growth inhibition of approximately 100 strain of MRSA” value is “strongly inhibited in their growth”. Besides, in the data set on cysteine proteases, the protease inhibitory activity entry is recorded as “devoid of any detectable protease inhibitory activity”. In addition, in the data set with labial herpes, the “time after which symptoms of beginning labial herpes outbreak was gone” value is “Cp1 was added to a softening cream and 0.2 ml solution (0.1 g/l) was applied to an area of a beginning labial herpes outbreak on the lip of a person. After 3-4 hours the symptoms was gone. The experiment was performed twice”. In addition, the “antibacterial effect, Streptococcus: group A” value in the data set on Streptococcus: group A was “+”. Further, in data set [3], the “activity against gram-negative bacteria” value is recorded as “low or no activity”; the “antibacterial effect, E. coli and other Gram-negatives” value is “−”. In addition, the “antibacterial effect, Streptococcus: group B” value with Streptococcus: group B is given as “+”. Besides, in data set [4], the “antibacterial effect, CNS incl. resistant and multiresistant MRSE” value is given as “+”. For the same molecule, the “MIC Aspergillus niger ATCC 16404” value in [5] was determined as 64 µg/mL (≈ 101 µM). The “MIC Candida albicans ATCC 10231” value in data set [6] is 32 µg/ml. Also, the “solubility in DMSO” value in “Solubility” (DMSO) was “soluble in DMSO to high concentrations”. For the same molecule, in “Solubility” (water), the solubility in water entry is given as “less soluble in water”.

In the case of `CC(=O)NC(Cc1ccccc1)C(=O)NCC(NC(=O)C(CC(C)C)NC(=O)C(CCCNC(=N)N)NC(=O)OCc1ccccc1)C(C)C` (stereo not shown) [[AcPhe^5]Cp1], in the data set on Streptococcus: group G, the “antibacterial effect, Streptococcus: group G” value was “+”. Moreover, the “antibacterial effect, α-haemolytic Streptococci” value in data set [1] is “−”. The “antibacterial effect, Streptococcus: group C” value with Streptococcus: group C is listed as “+”. Besides, the “antibacterial effect, S. pneumoniae” value in the data set with S. pneumoniae is listed as “+”. In addition, the “antibacterial effect, L. monocytogenes” value with L. monocytogenes is given as “+”. For the same molecule, in [2], the “antibacterial effect, Staphylococci incl. multi-resistant MRSA” value was “+” and the “growth inhibition of approximately 100 strain of MRSA” value is given as “strongly inhibited in their growth”. Further, the “antibacterial effect, Streptococcus: group A” value in the data set with Streptococcus: group A is “+”. Moreover, the “antibacterial effect, E. coli and other Gram-negatives” value in data set [3] is “−”. The “antibacterial effect, Streptococcus: group B” value in the data set on Streptococcus: group B was “+”. Besides, the “antibacterial effect, CNS incl. resistant and multiresistant MRSE” value in data set [4] is recorded as “+”. Moreover, the “MIC Aspergillus niger ATCC 16404” value in data set [5] is 256 µg/mL (≈ 368 µM). Moreover, in [6], the “MIC Candida albicans ATCC 10231” value is 512 µg/mL (≈ 737 µM).

Take “Mpa-Phe-Arg-Leu-Val-Phe-Cys-NH2 ([Mpa]FRLVFC-NH2; cysteine pairing not given here)”: the “Activity Anti-bacterial” value in the data set with bacteria is recorded as “+”.

For the molecule “Z-Arg-Leu-Val-Phe-NH2 ({code Z}-RLVF-NH2; reading uncertain; also: printed as Z-Arg-Leu-Val-Phe-NH2)”, the “Activity Anti-bacterial” value with bacteria is reported as “+”.

Regarding Z-Arg-Leu-Val-cinnamoylamide, the “Activity Anti-bacterial” value in the data set with bacteria is “+”.

As to cyclo(FRLVF[Orn]LV), the “Activity Anti-bacterial” value in the data set with bacteria was “+”.

cyclo(F[Orn]LVF[Orn]LV): the “Activity Anti-bacterial” value in the data set with bacteria is listed as “+”.

Regarding “cyclo(Phe-Arg-Leu-Val-Phe-Arg-Leu-Val) (FRLVFRLV; cyclic; printed: Phe-Arg-Leu-Val-Phe-Arg-Leu-Val)”, the “Activity Anti-bacterial” value in the data set with bacteria is on record as “+”.

Consider “cyclo(Tyr-Arg-Leu-Val-Tyr-Arg-Leu-Val) (YRLVYRLV; cyclic; printed: Tyr-Arg-Leu-Val-Tyr-Arg-Leu-Val)”, for which the “Activity Anti-bacterial” value with bacteria is given as “+”.

Turning to cyclo([Phg]RLV[Phg]RLV), the “Activity Anti-bacterial” value with bacteria is given as “+”.

Take cyclo([dPhg]RLV[dPhg]RLV): the “Activity Anti-bacterial” value with bacteria is “+”.

With cyclo([dY]RLV[dY]RLV), the “Activity Anti-bacterial” value in the data set on bacteria is recorded as “+”.

For the origin of these results see patent US20080255055A1, “Use of Derivatives of Dipeptides for the Manufacture of a Medicament for the Treamtent of Microbial Infections” (NEOBIOTICS AB, priority 2004, published 2008).
